Series [1] deals with human skin fibroblasts (1BR.3.N cell line). As to the kind of experiment: Cytotoxicity, Presto Blue cell viability assay on human skin fibroblasts. The format is cell-based. As to conditions: 1BR.3.N human skin fibroblasts, 24 h incubation, Hill Equation, read-out: IC50 Values (Mean ± SD) Fibroblasts. As to the method:
The cytotoxicity test was conducted on a 1BR.3.N cell line (human skin fibroblasts, ECACC, co. 90020508) and human epidermal keratinocytes, neonatal (Millipore, co. SCCE020) purchased from Sigma-Aldrich (Merck, Darmstadt, Germany). […] The cells were maintained at 37 °C and 5% CO2 in a humidified incubator. Next, the medium was changed into a starvation medium for the 1BR.3.N cell line (EpiGROTM human epidermal keratinocyte complete media kit for keratinocytes) with a variable final concentration of five analyzed complexes (ZnGlu (1), ZnGly (2), ZnHis (3), ZnPro (4), ZnTrp (6)) and two controls, ZnPCA and ZnCl2.

Series [2] deals with human epidermal keratinocytes, neonatal. As to the kind of experiment: Cytotoxicity, Presto Blue cell viability assay on human epidermal keratinocytes. To be noted: 24 h incubation, Hill Equation, read-out: IC50 Values (Mean ± SD) Keratinocytes. The format is cell-based. As to the method:
The cytotoxicity test was conducted on a 1BR.3.N cell line (human skin fibroblasts, ECACC, co. 90020508) and human epidermal keratinocytes, neonatal (Millipore, co. SCCE020) purchased from Sigma-Aldrich (Merck, Darmstadt, Germany). The same procedure was conducted for keratinocytes in EpiGROTM human epidermal keratinocyte complete media with 6 mM L-glutamine, 0.405 EpiFactor P, 1.0 μM epinephrine, 0.5 ng/mL rh TGF-α, 100 ng/mL hydrocortisone hemisuccinate, 5 μg/mL rh insulin and apo-transferrin. The cells were maintained at 37 °C and 5% CO2 in a humidified incubator. Next, the medium was changed into a starvation medium for the 1BR.3.N cell line (EpiGROTM human epidermal keratinocyte complete media kit for keratinocytes) with a variable final concentration of five analyzed complexes (ZnGlu (1), ZnGly (2), ZnHis (3), ZnPro (4), ZnTrp (6)) and two controls, ZnPCA and ZnCl2.

Another series relates to L929 fibroblast cultures. On the set-up: method as in PMID 28246541. As to conditions: murine model; read-out: IC50 against L929 fibroblast cultures; cited from earlier work.
The test system of another series is HaCaT keratinocytes. To be noted: concentration equal to 100 μM; cited from earlier work.
Series [3] has as its system Cutibacterium acnes ATCC 6919. As to the kind of experiment: Antimicrobial activity by microdilution method (CLSI M11), anaerobic conditions. The series is classed as cell-based. As to conditions: C. acnes ATCC 6919, 48 h at 37 °C, tested up to 500 mg/L. As to the method:
The antimicrobial potential of zinc complexes against the anaerobic strain Cutibacterium acnes ATCC 6919 was tested by the microdilution method in Brucella broth supplemented with hemin, vitamin K1 and laked horse blood according to the CLSI document M11 (9th Edition) for antimicrobial susceptibility testing of anaerobic bacteria. Antimicrobial activity testing assays were conducted in 96-well cell culture plates in anaerobic conditions. The antimicrobial properties of zinc complexes were tested up to 500 mg/L. […] The bacterial suspension and dilutions of the tested compounds were combined in equal volumes to achieve the expected concentrations of zinc amino acid complexes. Samples as well as adequate abiotic and biotic controls were incubated for 48 h at 37 °C after being placed in 96-well cell culture plates in anaerobic jars, in which anaerobic conditions were formed using Anoxomat Mark II CTS (Mart Microbiology […], the Netherlands). The minimum inhibitory concentration (MIC), expressed in mg/L, was determined as the lowest concentration of zinc amino acid complexes at which no growth of C. acnes was observed. […] The Brucella agar plates were incubated for 48 h at 37 °C after placing the plates in anaerobic jars, in which anaerobic conditions were created.

In series [4] the test system is human lung fibroblast (MRC-5) cell line. On the set-up: method as in PMID 30594780. As to conditions: concentrations up to 100 µM; cited from earlier work.

Broadly, the IC50 is the point on the concentration scale where inhibition reaches its midpoint.

`[Cl-].[Cl-].[Zn+2]` [ZnCl2]: the IC50 is 163 ± 4.1 µM in series [1], 127 µM in series [2] and 0.928 µM in the series with L929 fibroblast cultures. Besides, the “toxicity to HaCaT keratinocytes” value in the series on HaCaT keratinocytes is listed as “non-toxic”.

For the compound `NCC(=O)[O-].NCC(=O)[O-].[Zn+2]` [ZnGly (2)], the 50% inhibitory concentration (IC50) in series [1] was 120 ± 4.61 µM; in series [2], 138 ± 8.11 µM. The “MIC Value” in series [3] was 100 µg/mL.

As to `O=C1CCC(C(=O)[O-])N1.O=C1CCC(C(=O)[O-])N1.[Zn+2]` (centres unmarked) [ZnPCA, zinc 2-pirrolidone 5-carboxylate], the 50% inhibitory concentration (IC50) was determined as 172 ± 9.69 µM in series [1] and 102 ± 2.07 µM in series [2]. For the same compound, the “MIC Value” in series [3] was determined as 175 µg/mL.

For the compound “copper(II) complex with 5-hydroxytryptophan”, in series [4], the “toxic effects on MRC-5 cell line” value was “no toxic effects”.
